Test results as given in ChEMBL document CHEMBL4308841, “Synthesis, in vitro antiproliferative activity, and kinase inhibitory effects of pyrazole-containing diarylureas and diarylamides” (Eur J Med Chem, 2018).
pIC50: −log10 of the molar value.

Tests used:
HL-60(TB) [1] = experiment: Growth inhibition of human HL-60(TB) cells incubated for 48 hrs by sulforhodamine B assay; type: functional, cell-based; details: HL-60, 48 h
NCI-H23 = experiment: Growth inhibition of human NCI-H23 cells incubated for 48 hrs by sulforhodamine B assay; type: functional, cell-based; details: NCI-H23, 48 h
SF-539 [2] = experiment: Growth inhibition of human SF539 cells incubated for 48 hrs by sulforhodamine B assay; type: functional, cell-based; details: SF-539, 48 h
SNB-75 [3] = experiment: Growth inhibition of human SNB75 cells incubated for 48 hrs by sulforhodamine B assay; type: functional, cell-based; details: SNB-75, 48 h
MCF7 [4] = experiment: Growth inhibition of human MCF7 cells incubated for 48 hrs by sulforhodamine B assay; type: functional, cell-based; details: MCF7, 48 h
Hs-578T [5] = experiment: Growth inhibition of human Hs578T cells incubated for 48 hrs by sulforhodamine B assay; type: functional, cell-based
HT-29 = experiment: Growth inhibition of human HT-29 cells assessed as cell growth at 0.01 uM incubated for 48 hrs by sulforhodamine B assay relative to control; type: functional; details: HT-29, 48 h, read-out: Activity
SNB-19 = experiment: Growth inhibition of human SNB19 cells assessed as cell growth at 0.01 uM incubated for 48 hrs by sulforhodamine B assay relative to control; type: functional; details: SNB-19, 48 h, read-out: Activity
SK-MEL-2 = experiment: Growth inhibition of human SK-MEL-2 cells assessed as cell growth at 0.01 uM incubated for 48 hrs by sulforhodamine B assay relative to control; type: functional; details: SK-MEL-2, 48 h, read-out: Activity
UACC-257 = experiment: Growth inhibition of human UACC257 cells assessed as cell growth at 0.01 uM incubated for 48 hrs by sulforhodamine B assay relative to control; type: functional; details: UACC-257, 48 h, read-out: Activity
IGROV-1 = experiment: Growth inhibition of human IGROV1 cells assessed as cell growth at 0.01 uM incubated for 48 hrs by sulforhodamine B assay relative to control; type: functional; details: IGROV-1, 48 h, read-out: Activity
SK-OV-3 = experiment: Growth inhibition of human SKOV3 cells assessed as cell growth at 0.01 uM incubated for 48 hrs by sulforhodamine B assay relative to control; type: functional; details: SK-OV-3, 48 h, read-out: Activity
RXF 393 = experiment: Growth inhibition of human RXF393 cells assessed as cell growth at 0.01 uM incubated for 48 hrs by sulforhodamine B assay relative to control; type: functional; details: RXF 393, 48 h, read-out: Activity
MCF7 [6] = experiment: Growth inhibition of human MCF7 cells assessed as cell growth at 0.01 uM incubated for 48 hrs by sulforhodamine B assay relative to control; type: functional; details: MCF7, 48 h, read-out: Activity
SR = experiment: Growth inhibition of human SR cells assessed as cell growth at 0.1 uM incubated for 48 hrs by sulforhodamine B assay relative to control; type: functional; details: read-out: Activity
NCI-H322M [7] = experiment: Growth inhibition of human NCI-H322M cells assessed as cell growth at 0.1 uM incubated for 48 hrs by sulforhodamine B assay relative to control; type: functional; details: read-out: Activity
OVCAR-3 = experiment: Growth inhibition of human OVCAR3 cells assessed as cell growth at 0.1 uM incubated for 48 hrs by sulforhodamine B assay relative to control; type: functional; details: OVCAR-3, 48 h, read-out: Activity
SN12C [8] = experiment: Growth inhibition of human SN12C cells assessed as cell growth at 0.1 uM incubated for 48 hrs by sulforhodamine B assay relative to control; type: functional; details: read-out: Activity
HL-60(TB) [9] = experiment: Growth inhibition of human HL-60(TB) cells assessed as cell growth at 1 uM incubated for 48 hrs by sulforhodamine B assay relative to control; type: functional; details: HL-60, 48 h, read-out: Activity
NCI-H322M [10] = experiment: Growth inhibition of human NCI-H322M cells assessed as cell growth at 1 uM incubated for 48 hrs by sulforhodamine B assay relative to control; type: functional; details: read-out: Activity
HCT-116 = experiment: Growth inhibition of human HCT116 cells assessed as cell growth at 1 uM incubated for 48 hrs by sulforhodamine B assay relative to control; type: functional; details: HCT-116, 48 h, read-out: Activity
SF-295 = experiment: Growth inhibition of human SF295 cells assessed as cell growth at 1 uM incubated for 48 hrs by sulforhodamine B assay relative to control; type: functional; details: SF-295, 48 h, read-out: Activity
CAKI-1 = experiment: Growth inhibition of human Caki1 cells assessed as cell growth at 1 uM incubated for 48 hrs by sulforhodamine B assay relative to control; type: functional; details: CAKI-1, 48 h, read-out: Activity
SN12C [11] = experiment: Growth inhibition of human SN12C cells assessed as cell growth at 1 uM incubated for 48 hrs by sulforhodamine B assay relative to control; type: functional; details: read-out: Activity
Hs-578T [12] = experiment: Growth inhibition of human Hs578T cells assessed as cell growth at 1 uM incubated for 48 hrs by sulforhodamine B assay relative to control; type: functional; details: read-out: Activity
NCI-H226 = experiment: Growth inhibition of human NCI-H226 cells assessed as cell growth at 100 uM incubated for 48 hrs by sulforhodamine B assay relative to control; type: functional; details: NCI-H226, 48 h, read-out: Activity
HCT-15 = experiment: Growth inhibition of human HCT15 cells assessed as cell growth at 100 uM incubated for 48 hrs by sulforhodamine B assay relative to control; type: functional; details: HCT-15, 48 h, read-out: Activity
SF-539 [13] = experiment: Growth inhibition of human SF539 cells assessed as cell growth at 100 uM incubated for 48 hrs by sulforhodamine B assay relative to control; type: functional; details: SF-539, 48 h, read-out: Activity
SNB-75 [14] = experiment: Growth inhibition of human SNB75 cells assessed as cell growth at 100 uM incubated for 48 hrs by sulforhodamine B assay relative to control; type: functional; details: SNB-75, 48 h, read-out: Activity
OVCAR-4 = experiment: Growth inhibition of human OVCAR4 cells assessed as cell growth at 100 uM incubated for 48 hrs by sulforhodamine B assay relative to control; type: functional; details: OVCAR-4, 48 h, read-out: Activity
[15] = read-out: pLC50 (the source's name) (converted)

COc1cc(Cl)cc(-c2nn(-c3cccc(NC(=O)Nc4cc(C(F)(F)F)cc(C(F)(F)F)c4)c3)cc2-c2ccncc2)c1
pIC50 (HL-60(TB) [1]): 6.48
GI50 (HL-60(TB) [1]; read-out: GI50): 370 nM
LC50 (HL-60(TB) [1]; read-out: LC50): > 100000 nM
TGI (HL-60(TB) [1]; read-out: TGI): 3240 nM
GI50 (HL-60(TB) [1]; read-out: pGI50 (converted)): 324 nM
LC50 (HL-60(TB) [1]; read-out: pLC50 (converted)): > 100000 nM
TGI (HL-60(TB) [1]; read-out: pTGI (converted)): 3240 nM
pIC50 (NCI-H23): 6.48
GI50 (NCI-H23; read-out: GI50): 328 nM
LC50 (NCI-H23; read-out: LC50): 50 nM
TGI (NCI-H23; read-out: TGI): 1600 nM
GI50 (NCI-H23; read-out: pGI50 (converted)): 331 nM
LC50 (NCI-H23; read-out: pLC50 (converted)): 50100 nM
TGI (NCI-H23; read-out: pTGI (converted)): 1580 nM
pIC50 (SF-539 [2]): 5.85
CC50 (SF-539 [2]; read-out: LC50 (the source's name)): 55 nM
TGI (SF-539 [2]; read-out: TGI): 3490 nM
GI50 (SF-539 [2]; read-out: pGI50 (converted)): 1410 nM
CC50 (SF-539 [2]; [15]): 8710 nM
TGI (SF-539 [2]; read-out: pTGI (converted)): 3550 nM
pIC50 (SNB-75 [3]): 6.07
GI50 (SNB-75 [3]; read-out: GI50): 848 nM
TGI (SNB-75 [3]; read-out: TGI): 5830 nM
GI50 (SNB-75 [3]; read-out: pGI50 (converted)): 851 nM
CC50 (SNB-75 [3]; [15]): 70800 nM
TGI (SNB-75 [3]; read-out: pTGI (converted)): 5890 nM
pIC50 (MCF7 [4]): 6.42
GI50 (MCF7 [4]; read-out: GI50): 354 nM
LC50 (MCF7 [4]; read-out: LC50): > 100000 nM
TGI (MCF7 [4]; read-out: TGI): 9320 nM
GI50 (MCF7 [4]; read-out: pGI50 (converted)): 380 nM
LC50 (MCF7 [4]; read-out: pLC50 (converted)): > 100000 nM
TGI (MCF7 [4]; read-out: pTGI (converted)): 9330 nM
pIC50 (Hs-578T [5]): 5.85
GI50 (Hs-578T [5]; read-out: GI50): 1400 nM
TGI (Hs-578T [5]; read-out: TGI): 7260 nM
GI50 (Hs-578T [5]; read-out: pGI50 (converted)): 1450 nM
CC50 (Hs-578T [5]; [15]): > 100000 nM
TGI (Hs-578T [5]; read-out: pTGI (converted)): 7240 nM
growth at 0.01 µM (HT-29): 102%
growth at 0.01 µM (SNB-19): 89%
growth at 0.01 µM (SK-MEL-2): 103%
growth at 0.01 µM (UACC-257): 96%
growth at 0.01 µM (IGROV-1): 103%
growth at 0.01 µM (SK-OV-3): 100%
growth at 0.01 µM (RXF 393): 96%
growth at 0.01 µM (MCF7 [6]): 58%
growth at 0.1 µM (SR): 92%
growth at 0.1 µM (NCI-H322M [7]): 95%
growth at 0.1 µM (OVCAR-3): 95%
growth at 0.1 µM (SN12C [8]): 97%
growth at 1 µM (HL-60(TB) [9]): 14%
growth at 1 µM (NCI-H322M [10]): 49%
growth at 1 µM (HCT-116): 7%
growth at 1 µM (SF-295): 12%
growth at 1 µM (CAKI-1): 22%
growth at 1 µM (SN12C [11]): 17%
growth at 1 µM (Hs-578T [12]): 50%
growth at 100 µM (NCI-H226): -47%
growth at 100 µM (HCT-15): -83%
growth at 100 µM (SF-539 [13]): -73%
growth at 100 µM (SNB-75 [14]): -58%
growth at 100 µM (OVCAR-4): -22%
